# Laboratory results: patent US9546196B2, “Compositions and methods of treatment of cancers” (The University of Toledo, priority 2009, dated 2017)
# Key:
# [1] = system: CWR22-Rv1 (androgen-refractory) cells; assay: CWR22-Rv1 cell density with peptide; format: cell-based; details: 10 μM peptide; 1-8 hrs
# Protocol: FIG. 15C: CWR22-Rv1 (androgen-refractory) cells were grown for 1-8 hrs in the presence of 10 μM Peptide A-8R [SEQ ID NO: 1] or vehicle and then cell density was measured.
# To measure how rapid the cytotoxic effect of Peptide A-8R [SEQ ID NO: 1] occurs, LNCaP cells were treated with 10 μM peptide and incubated for 1-8 hrs. […] Using the same conditions, C81 cells were used to study the peptide effect on hormone-refractory prostate cancer cells.
# LNCaP xenograft tumors = LNCaP xenograft tumors in nude mice, intratumoral injection; format: in vivo
# Protocol: FIG. 20: Peptide A-8R [SEQ ID NO: 1] inhibits the growth of LNCaP prostate xenograft tumors. LNCaP xenograft tumors were grown in nude mice to a size of 200-400 cubic mm and then treated with daily intratumoral injections of either Peptide A-8R [SEQ ID NO: 1] (80 mg/kg of animal) or Vehicle (DMSO) for seven days, after which the tumors were left untreated and allowed to grow for an additional 2-3 weeks. Each point represents the average tumor size of three animals plus/minus the standard deviations. Note that open squares or circles represent no treatment of either Peptide A-8R [SEQ ID NO: 1] or vehicle.
# This was analyzed using LNCaP xenograft tumors established in nude mice and direct injection of Peptide A-8R [SEQ ID NO: 1] (FIG. 20).
# [2] = system: Capan-2 pancreatic cancer cells; assay: Capan-2 cell density with peptide; format: cell-based; details: increasing concentration; 3 or 5 days
# Protocol: FIG. 21B: Capan-2 pancreatic cancer cells were grown for 3 or 5 days in the presence of increasing concentration of Peptide A-8R [SEQ ID NO: 1] or vehicle and then cell density was measured.
# To determine if Peptide A-8R [SEQ ID NO: 1] can be cytotoxic to other cancer cells, a pancreatic cancer cell line, Capan-2, was also tested.
# [3] = system: Cos monkey kidney cancer cells; assay: Cos cell density with peptide; format: cell-based; details: even at 100 μM; 2 or 4 days; no endogenous sGCα1
# Protocol: FIG. 17B: Cos monkey kidney cancer cells were grown for 2 or 4 days in the presence of increasing concentration of Peptide A-8R [SEQ ID NO: 1] or vehicle and then cell density was measured.
# LNCaP cell culture = format: cell-based
# Excerpt: In one non-limiting example, Peptide A-8R [SEQ ID NO: 1] can be truncated to a smaller peptide that retains the same type of biological activity profile. In certain embodiments, truncating Peptide A-8R [SEQ ID NO: 1] results in greater potency upon conversion of some of the pharmacophore functionalities to peptidomimetic groups that can, in turn, enhance key interactions by lowering the net binding energy. In one experiment, Peptide A-8R [SEQ ID NO: 1] was divided into two parts, using the central proline residue as the division point. […] A minimum number of amino acids desired for cytotoxicity was then identified. […] The following Peptide A truncated and derivative probes were synthesized and evaluated for their effect on cytotoxicity after 3- and 6-day exposures:
# The following table lists cell culture data for truncated Peptide A peptides. The amino acid sequences and IC50 values in μM concentrations depict cytotoxicity after 3- and 6-day exposures (“NotA” means not active). “8R” [SEQ ID NO: 6] signifies that 8 arginines are present on the carboxy terminus to mediate membrane translocation. The data has shown that the 8R terminus [SEQ ID NO: 6] can be either as the free carboxy (—OH) or amide (—NH2) with no alteration of permeation or observed activity.
# The table below lists LNCaP cell culture data for various Peptide A derivatives, displaying the observed IC50 values in μM concentrations after 3- and 6-day exposures.
substance,measurement,setting,value
Ac-TFCKAFPFHIIRRRRRRRR-OH [Peptide A-8R],killing of CWR22-Rv1 cells,[1],able to kill
same,tumor growth during treatment,"LNCaP xenograft tumors; 80 mg/kg daily intratumoral, seven daily injections",strongly inhibited tumor growth and actually caused tumor regression
same,tumor growth after stopping peptide injection,"LNCaP xenograft tumors; additional 2-3 weeks untreated, versus Vehicle",grew significantly more slowly
same,cytotoxicity to Capan-2 cells,[2],strongly cytotoxic
same,effect on Cos cells,[3],little to no effect
same,Cytotoxicity,LNCaP cell culture,Yes
